Assay results taken from PubChem BioAssay AID1918958 (Molecular Pharmacology Branch, DTP, NCI, 2023).

System: NCI-H196 complex spheroid viability
Experiment: Anticancer human tumor NCI-H196 cell line growth inhibition [LSD1];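 note: spheroids exposed to agents for 7 days before readout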;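 for viability, T/C: 100% = DMSO vehicle control viability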
Conditions: for IC50: curve of first compound; for viability, T/C: stronger effect = lower value
Summary of the method: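 Multicellular complex spheroids of tumor cells with human endothelial cells (HUVEC) and mesenchymal stem cells; the LSD1 inhibitor iadademstat was combined with standard-of-care or investigational agents. Top concentration at or near clinical Cmax, half-log dilutions; final DMSO ≤0.25%.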

[1] = second compound 0.1 µM, first compound 0.0316 µM
[2] = second compound 0.1 µM, first compound 0.1 µM
[3] = second compound 0.1 µM, first compound 0.316 µM
[4] = second compound 0.1 µM, first compound 1 µM
[5] = second compound 0.1 µM, first compound 3.16 µM
[6] = second compound 0.1 µM, first compound 10 µM
[7] = second compound 0.316 µM, first compound 0.0316 µM
[8] = second compound 0.316 µM, first compound 0.1 µM
[9] = second compound 0.316 µM, first compound 0.316 µM
[10] = second compound 0.316 µM, first compound 1 µM
[11] = second compound 0.316 µM, first compound 3.16 µM
[12] = second compound 0.316 µM, first compound 10 µM
[13] = second compound 1 µM, first compound 0.0316 µM
[14] = second compound 1 µM, first compound 0.1 µM
[15] = second compound 1 µM, first compound 0.316 µM
[16] = second compound 1 µM, first compound 1 µM
[17] = second compound 1 µM, first compound 3.16 µM
[18] = second compound 1 µM, first compound 10 µM
[19] = second compound 3.16 µM, first compound 0.0316 µM
[20] = second compound 3.16 µM, first compound 0.1 µM
[21] = second compound 3.16 µM, first compound 0.316 µM
[22] = second compound 3.16 µM, first compound 1 µM
[23] = second compound 3.16 µM, first compound 3.16 µM
[24] = second compound 3.16 µM, first compound 10 µM
[25] = second compound 10 µM, first compound 0.0316 µM
[26] = second compound 10 µM, first compound 0.1 µM
[27] = second compound 10 µM, first compound 0.316 µM
[28] = second compound 10 µM, first compound 1 µM
[29] = second compound 10 µM, first compound 3.16 µM
[30] = second compound 10 µM, first compound 10 µM
[31] = second compound 0.1 µM, first compound 0.00316 µM
[32] = second compound 0.1 µM, first compound 0.01 µM
[33] = second compound 0.316 µM, first compound 0.00316 µM
[34] = second compound 0.316 µM, first compound 0.01 µM
[35] = second compound 1 µM, first compound 0.00316 µM
[36] = second compound 1 µM, first compound 0.01 µM
[37] = second compound 3.16 µM, first compound 0.00316 µM
[38] = second compound 3.16 µM, first compound 0.01 µM
[39] = second compound 10 µM, first compound 0.00316 µM
[40] = second compound 10 µM, first compound 0.01 µM

Row | SMILES | IC50 (second compound 0.1 µM) [nM] | IC50 (second compound 0.316 µM) [nM] | IC50 (second compound 1 µM) [nM] | IC50 (second compound 3.16 µM) [nM] | IC50 (second compound 10 µM) [nM] | viability, T/C [1] [%] | viability, T/C [2] [%] | viability, T/C [3] [%] | viability, T/C [4] [%] | viability, T/C [7] [%] | viability, T/C [8] [%] | viability, T/C [9] [%] | viability, T/C [10] [%] | viability, T/C [13] [%] | viability, T/C [14] [%] | viability, T/C [15] [%] | viability, T/C [16] [%] | viability, T/C [19] [%] | viability, T/C [20] [%] | viability, T/C [21] [%] | further results
1 | CC(C)c1c(-c2ccccc2)nc2c(C#N)c[nH]n2c1=O + NC1CCC(NC2CC2c2ccccc2)CC1 | > 10000 | > 10000 | > 10000 | > 10000 | > 10000 | 104 | 105 | 114 | 94.2 | 101 | 101 | 107 | 98.2 | 97.4 | 93.3 | 96.4 | 94.1 | 97.7 | 104 | 98.5 | viability, T/C [5]: 90.7%; viability, T/C [6]: 95.6%; viability, T/C [11]: 90%; viability, T/C [12]: 84.9%; viability, T/C [17]: 91.7%; viability, T/C [18]: 90.7%; viability, T/C [22]: 93.4%; viability, T/C [23]: 94.3%; viability, T/C [24]: 88%; viability, T/C [25]: 98.7%; viability, T/C [26]: 97.1%; viability, T/C [27]: 99.1%; viability, T/C [28]: 102%; viability, T/C [29]: 83.4%; viability, T/C [30]: 89%
2 | CC1COCCN1c1cc(-c2ccnn2C)c2ccnc(-c3ccn[nH]3)c2n1 (stereo not given) + NC1CCC(NC2CC2c2ccccc2)CC1 | 296 | 366 | 310 | 771 | 266 | 80 | 58.1 | 54.1 | 44.2 | 75.2 | 59.8 | 51.7 | 47.1 | 74.2 | 57.7 | 51.8 | 47.6 | 69.9 | 60.1 | 53.9 | viability, T/C [31]: 84.7%; viability, T/C [32]: 84.3%; viability, T/C [33]: 81%; viability, T/C [34]: 86.4%; viability, T/C [35]: 73.6%; viability, T/C [36]: 78.7%; viability, T/C [37]: 88%; viability, T/C [38]: 82.6%; viability, T/C [22]: 48.5%; viability, T/C [39]: 86.7%; viability, T/C [40]: 78.8%; viability, T/C [25]: 74.5%; viability, T/C [26]: 56.2%; viability, T/C [27]: 49%; viability, T/C [28]: 46.5%
3 | COc1ccc([C@@H](O)c2cc(-c3ncnc4cc(N5CCOCC5)ccc34)c(F)cc2Cl)nn1 + NC1CCC(NC2CC2c2ccccc2)CC1 | > 10000 | > 10000 | > 10000 | > 10000 | > 10000 | 102 | 99.2 | 88.9 | 81.3 | 103 | 102 | 96.6 | 85.5 | 95.7 | 105 | 93.4 | 90.5 | 103 | 103 | 88.9 | viability, T/C [5]: 72.7%; viability, T/C [6]: 53.7%; viability, T/C [11]: 73.4%; viability, T/C [12]: 54.6%; viability, T/C [17]: 76%; viability, T/C [18]: 58%; viability, T/C [22]: 88.9%; viability, T/C [23]: 69.5%; viability, T/C [24]: 54%; viability, T/C [25]: 102%; viability, T/C [26]: 104%; viability, T/C [27]: 89.8%; viability, T/C [28]: 84.2%; viability, T/C [29]: 73.3%; viability, T/C [30]: 57%
4 | O=C(C=Cn1cnc(-c2cc(C(F)(F)F)cc(C(F)(F)F)c2)n1)NNc1cnccn1 + NC1CCC(NC2CC2c2ccccc2)CC1 | < 3.16 | < 3.16 | < 3.16 | < 3.16 | < 3.16 | 22.3 | 15.1 | 14.4 | 9.29 | 19.7 | 14.1 | 14.5 | 10.1 | 22.3 | 17.1 | 15.7 | 10.4 | 21.1 | 17.1 | 13.9 | viability, T/C [31]: 32.9%; viability, T/C [32]: 27.2%; viability, T/C [33]: 31.6%; viability, T/C [34]: 25.9%; viability, T/C [35]: 38%; viability, T/C [36]: 25.1%; viability, T/C [37]: 30.6%; viability, T/C [38]: 29.2%; viability, T/C [22]: 12.9%; viability, T/C [39]: 38.2%; viability, T/C [40]: 25.6%; viability, T/C [25]: 16%; viability, T/C [26]: 19.1%; viability, T/C [27]: 14.5%; viability, T/C [28]: 11.9%
